From patent publication US20020077491A1, “Methods for forming combinatorial libraries combining amide bond formation with epoxide opening” (priority 2000, published 2002)
Several values for one entry are separate records, joined by “and”; a condition that tells them apart may be missing. Identical values can stand only once.

Experiments:
[1] = target: T1, E. coli dihydrofolate reductase (DHFRec) (Escherichia coli, UniProt P0ABQ4); assay: ALIS affinity selection-mass spectrometry with E. coli DHFR; format: binding
T1 construct: made in house
Excerpt: (§1) Utilizing the ALIS techniques described above, the affinity of ligands for DHFRec was compared to the affinity of the same ligands for the bovine (B. taurus) DHFR enzyme.

[2] = target: T2, bovine (B. taurus) DHFR enzyme (Bos taurus, UniProt P00376); assay: ALIS affinity selection with bovine DHFR; format: binding; conditions: FIG. 9
T2 sequence (P00376 1-187): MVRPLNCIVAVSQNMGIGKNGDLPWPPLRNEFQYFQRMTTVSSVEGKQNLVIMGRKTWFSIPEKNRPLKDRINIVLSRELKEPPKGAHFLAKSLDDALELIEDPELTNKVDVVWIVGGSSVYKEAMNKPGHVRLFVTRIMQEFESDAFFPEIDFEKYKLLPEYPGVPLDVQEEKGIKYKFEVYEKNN
Excerpt: as §1

E. coli BL21(DE3) = assay: Determination of antibacterial activity (inhibition of bacterial growth, absorbance at 600 nm); format: cell-based; conditions: Escherichia coli, 24 hours at 37° C.
Description: Protocols for the measurement of IC50 for the evaluation of antibacterial activity followed standard methods [Antibiotics in Laboratory Medicine, V. Lorian, Ed. Fourth edition, 1996. Williams and Wilkins; Baltimore, Md.]. Briefly, purified (S)-29, antibiotic control, or vehicle (DMSO) was subjected to serial dilution into Luria-Bertani growth medium in a manner that placed 0.1 mL aliquots of medium-plus-vehicle or medium-plus-antibiotic into each well of a sterile polystyrene 96-well plate. To aid compound dissolution, medium-analyte mixtures were warmed to 37° C. for eight hours with agitation. Bacterial cells, [E. coli: hsdS gal (λcIts857 ind 1 Sam7 nin5 lacUV5-T7 gene 1); BL21(DE3)] were grown in to mid-log phase at 37° C. The culture was then diluted 1:10^5 into prewarmed growth medium. Aliquots of diluted bacterial culture (0.1 mL) were then combined with the pre-aliquotted medium-analyte mixtures to yield 0.2 mL inoculated cultures containing no more than 2.5% DMSO. The plated inoculate series were then grown for twenty-four hours at 37° C. with orbital shaking. Bacterial cell growth was quantitated by measuring absorbance at 600 nm. IC50 for the inhibition of bacterial growth was defined as the concentration of drug at which cell growth was half maximal at twenty-four hours.

Row | SMILES | affinity for DHFRec (ALIS) ([1]; E. coli enzyme, FIG. 9) | specificity for E. coli DHFR over bovine DHFR ([1]; pathogen vs. host DHFR, FIG. 9) | affinity for bovine (B. taurus) DHFR (ALIS) [2] | IC50 (E. coli BL21(DE3)) | ligand identified by affinity selection LC-MS-MS ([1]; sublibrary from Core 6 with building blocks 15 and 21)
1 | COc1ccc([C@@H](C)NC[C@H](O)COc2cc(C(=O)N3CCN(c4cccc(Cl)c4)CC3)on2)cc1 [(S)-29] | selectively binds to the E. coli enzyme | exhibits specificity for E. coli DHFR over bovine (B. taurus) DHFR | no detectable affinity | 56 µM and 29 µg/mL | –
2 | COc1ccc([C@@H](C)NCC(O)COc2cc(C(=O)N3CCN(c4cccc(Cl)c4)CC3)on2)cc1 (some centres unmarked) [Core 29] | – | – | – | – | matched that assigned to regioisomer 29
